The subject of assay [1] is S. aureus HH 127. The assay can be described thus: MIC in vitro (Table 1), S. aureus HH 127. The following applies: Staphylococcus aureus. The class given is cell-based. From the text:
(§1) Compound names corresponding to numbers are given in the experimental section. For comparative purposes, data for cephamandole, which is 7-mandelamido-3-(1-methyltetrazol-5-ylthiomethyl)-3-cephem-4-carboxylic acid, is also given in Tables 1 and 2.

Assay [2] relates to S. aureus SK 23390. In words: MIC in vitro (Table 1), S. aureus SK 23390. The assay is classed as cell-based. The following applies: Staphylococcus aureus.
Excerpt: as §1

Assay [3] concerns Strep. Faecalis HH 34358. The assay can be described thus: MIC in vitro (Table 1), Strep. Faecalis HH 34358. The assay is classed as cell-based.
Excerpt: as §1

Assay [4] relates to E. coli SK 12140. The assay can be described thus: MIC in vitro (Table 1), E. coli SK 12140. The class given is cell-based. The following applies: Escherichia coli, SK12140, in vitro.
Excerpt: as §1

In assay [5] the test system is E. coli HH 33779. The assay can be described thus: MIC in vitro (Table 1), E. coli HH 33779. The assay is classed as cell-based.
Excerpt: as §1

The subject of assay [6] is Kleb. pneumo. SK 4200. In words: MIC in vitro (Table 1), Kleb. pneumo. SK 4200. The assay is classed as cell-based.
Excerpt: as §1

Assay [7] concerns Kleb. pneumo. SK 1200. The assay can be described thus: MIC in vitro (Table 1), Kleb. pneumo. SK 1200. The class given is cell-based.
Excerpt: as §1

Assay [8] relates to Pseudo. sp. HH 63. The assay can be described thus: MIC in vitro (Table 1), Pseudo. sp. HH 63. The following applies: in vitro, Pseudo. sp. HH 63; read-out: MIC. The class given is cell-based. The source says: (§2) The compounds of Formula I have antibacterial activity against both Gram-positive and Gram-negative organisms. […] Compound names corresponding to numbers are given in the experimental section. For comparative purposes, data for cephamandole, which is 7-mandelamido-3-(1-methyltetrazol-5-ylthiomethyl)-3-cephem-4-carboxylic acid, is also given in Tables 1 and 2.

Assay [9] relates to Salmonella ATCC 12176. In words: MIC in vitro (Table 1), Salmonella ATCC 12176. The class given is cell-based.
Excerpt: as §2

Assay [10] deals with Shigella HH 117. In words: MIC in vitro (Table 1), Shigella HH 117. The assay is classed as cell-based.
Excerpt: as §2

Assay [11] concerns Entero. aerog. ATCC 13048. The assay can be described thus: MIC in vitro (Table 1), Entero. aerog. ATCC 13048. The class given is cell-based.
Excerpt: as §1

In assay [12] the test system is Serra. Marc. ATCC 13880. In words: MIC in vitro (Table 1), Serra. Marc. ATCC 13880. The assay is classed as cell-based.
Excerpt: as §1

Assay [13] has as its system Entero. cloacae HH 31254. The assay can be described thus: MIC in vitro (Table 1), Entero. cloacae HH 31254. The following applies: Enterobacter cloacae. The assay is classed as cell-based.
Excerpt: as §1

Assay [14] concerns E. coli 12140. The assay can be described thus: In vivo mouse protection (Table 2), E. coli 12140.
Excerpt: as §1

The test system of assay [15] is Kleb. pneumo. 4200. In words: In vivo mouse protection (Table 2), Kleb. pneumo. 4200.
Excerpt: as §1

Assay [16] relates to Proteus morgani 179. In words: MIC in vitro (Table 1), Proteus morgani 179. The class given is cell-based.
Excerpt: as §1

[17] abbreviates: Escherichia coli, HH33779, in vitro, E. coli HH 33779, read-out: MIC.
Setting [18] is: in vitro, Kleb. pneumo. SK 4200, read-out: MIC.
The mark [19] stands for this setting: Salmonella, ATCC12176, in vitro, read-out: MIC.
[20] abbreviates: Shigella, HH117, in vitro, read-out: MIC.
Setting [21] is: HH31254, in vitro, Entero. cloacae HH 31254, read-out: MIC.
[22] abbreviates: Escherichia coli, 12140, po, E. coli 12140, p.o.
Setting [23] is: Escherichia coli, 12140, sc, E. coli 12140, s.c.
Setting [24] is: SK23390, in vitro, S. aureus SK 23390, read-out: MIC.
The mark [25] stands for this setting: Enterococcus faecalis, in vitro, Strep. Faecalis HH 34358, read-out: MIC.

Molecules are shown by their SMILES. In brackets after ≈: the same amount, converted by molar mass. Like-named read-outs stand apart in the source and are kept apart here. A value given as a limit tells only on which side of the number the result lay.

One may read the MIC as the smallest concentration in the dilution series that meets the test's criterion for growth inhibition. Usually ED50 stands for the midpoint of the dose-response relation.

For the compound `O=C(O)CCCn1nnnc1SCC1=C(C(=O)O)N2C(=O)C(NC(=O)[C@H](O)c3ccccc3)[C@H]2SC1` (stereo partly drawn) [XII, 7-D-Mandelamido-3-[1-(3-carboxypropyl)tetrazol-5-ylthiomethyl]-3-cephem-4-carboxylic acid], the MIC in assay [1] (HH127) worked out at 3.1 µg/mL (≈ 5.8 µM); in assay [2] (SK23390), 0.4 µg/mL (≈ 0.748 µM); in assay [3] (Enterococcus faecalis) it was 12.5 µg/mL (≈ 23.4 µM); in [4] (read-out: MIC), 1.6 µg/mL (≈ 2.99 µM); in assay [5] (setting [17]), 1.6 µg/mL (≈ 2.99 µM); in [6] (setting [18]) it was 1.6 µg/mL (≈ 2.99 µM). For the same compound, the MIC was 1.6 µg/mL (≈ 2.99 µM) in [7]; 0.8 µg/mL (≈ 1.5 µM) in [7] (read-out: MIC); greater than 200 µg/mL in assay [8]; 0.4 µg/mL (≈ 0.748 µM) in assay [9] (setting [19]); 0.8 µg/mL (≈ 1.5 µM) in [9] (in vitro); 0.4 µg/mL (≈ 0.748 µM) in assay [10] (setting [20]). Moreover, the MIC in [11] is 3.1 µg/mL (≈ 5.8 µM); in assay [12], 12.5 µg/mL (≈ 23.4 µM); in assay [13] (setting [21]) it was 0.8 µg/mL (≈ 1.5 µM). Further, the ED50 is greater than 50 mg/kg in assay [14] (setting [22]); 1.84 mg/kg in assay [14] (setting [23]); 2.9 mg/kg in assay [15] (sc, Kleb. pneumo. 4200, s.c.).
As for `NC(=O)CCn1nnnc1SCC1=C(C(=O)O)N2C(=O)C(NC(=O)[C@H](O)c3ccccc3)[C@H]2SC1` (stereo partly drawn) [VII, 7-D-Mandelamido-3-[1-(2-carbamoylethyl)tetrazol-5-ylthiomethyl]-3-cephem-4-carboxylic acid], the MIC in assay [2] (SK23390) was found to be 0.4 µg/mL (≈ 0.77 µM); in assay [2] (setting [24]), 0.8 µg/mL (≈ 1.54 µM); in [3] (setting [25]), 12.5 µg/mL (≈ 24.1 µM); in assay [3] (in vitro, Strep. Faecalis HH 34358), 25 µg/mL (≈ 48.1 µM); in assay [4] it was 0.4 µg/mL (≈ 0.77 µM); in assay [4] (read-out: MIC), 0.8 µg/mL (≈ 1.54 µM). The MIC in assay [5] (setting [17]) is 1.6 µg/mL (≈ 3.08 µM); in [5] (in vitro, E. coli HH 33779), 3.1 µg/mL (≈ 5.97 µM); in assay [6], 0.4 µg/mL (≈ 0.77 µM); in assay [6] (setting [18]), 0.8 µg/mL (≈ 1.54 µM); in [7] (read-out: MIC) it was 0.8 µg/mL (≈ 1.54 µM); in [8], greater than 200 µg/mL. Besides, the MIC in [9] (setting [19]) is 0.2 µg/mL (≈ 0.385 µM); in assay [10] (setting [20]) it was 0.2 µg/mL (≈ 0.385 µM); in assay [10] (in vitro) it was 0.4 µg/mL (≈ 0.77 µM); in assay [12] it was 6.3 µg/mL (≈ 12.1 µM); in [12] (in vitro, Serra. Marc. ATCC 13880, read-out: MIC) it was 50 µg/mL (≈ 96.2 µM); in assay [13] (HH31254), 0.4 µg/mL (≈ 0.77 µM). The MIC in assay [13] (setting [21]) stood at 1.6 µg/mL (≈ 3.08 µM); in [16], 0.8 µg/mL (≈ 1.54 µM); in assay [16] (read-out: MIC), 1.6 µg/mL (≈ 3.08 µM). In addition, the ED50 is 25 mg/kg in assay [14] (setting [22]); 0.86 mg/kg in [14] (setting [23]); 17 mg/kg in assay [15] (po, Kleb. pneumo. 4200, p.o.); 0.78 mg/kg in [15] (sc, Kleb. pneumo. 4200, s.c.).
As for `NC(=O)CCn1nnnc1SCC1=C(C(=O)O)N2C(=O)C(NC(=O)[C@H](N)c3ccc(O)cc3)[C@H]2SC1` (stereo partly drawn) [X, 7-(D-α-Amino-4-hydroxyphenylacetamido)-3-[1-(2-carbamoylethyl)tetrazol-5-ylthiomethyl]-3-cephem-4-carboxylic acid], the minimal inhibitory concentration (MIC) in assay [1] (HH127) was determined as 6.3 µg/mL (≈ 11.8 µM); in [2] (setting [24]), 12.5 µg/mL (≈ 23.4 µM); in [3] (setting [25]), 25 µg/mL (≈ 46.8 µM); in assay [4], 1.6 µg/mL (≈ 2.99 µM); in assay [5] (Escherichia coli, HH33779) it was 1.6 µg/mL (≈ 2.99 µM); in assay [6], 1.6 µg/mL (≈ 2.99 µM). The MIC in assay [7] (read-out: MIC) was 3.1 µg/mL (≈ 5.8 µM); in assay [8] it was greater than 200 µg/mL; in assay [9] (setting [19]), 0.8 µg/mL (≈ 1.5 µM); in [10] (setting [20]) it was 1.6 µg/mL (≈ 2.99 µM); in assay [13] (HH31254) it was 1.6 µg/mL (≈ 2.99 µM); in assay [16] (read-out: MIC) it was 25 µg/mL (≈ 46.8 µM). In addition, the ED50 in assay [14] (setting [22]) was 25 mg/kg; in [14] (setting [23]) it was 0.78 mg/kg; in [15] (po, Kleb. pneumo. 4200, p.o.), 15.6 mg/kg; in assay [15] (sc, Kleb. pneumo. 4200, s.c.) it was 0.62 mg/kg.
For `NC(=O)CCCCCn1nnnc1SCC1=C(C(=O)O)N2C(=O)C(NC(=O)[C@H](O)c3ccccc3)[C@H]2SC1` (stereo partly drawn) [XIV, 7-D-Mandelamido-3-[1-(5-carbamoylpentyl)tetrazol-5-ylthiomethyl]-3-cephem-4-carboxylic acid], the MIC in [1] (HH127, in vitro, S. aureus HH 127, read-out: MIC) turned out to be 1.6 µg/mL (≈ 2.85 µM); in assay [2] (SK23390), 0.4 µg/mL (≈ 0.712 µM); in assay [3] (Enterococcus faecalis), 12.5 µg/mL (≈ 22.3 µM); in assay [4] (read-out: MIC), 3.1 µg/mL (≈ 5.52 µM); in assay [5] (setting [17]), 3.1 µg/mL (≈ 5.52 µM); in assay [6] (setting [18]), 1.6 µg/mL (≈ 2.85 µM). Further, the MIC in [7] (read-out: MIC) is 3.1 µg/mL (≈ 5.52 µM); in assay [8], greater than 200 µg/mL; in assay [9] (setting [19]) it was 3.1 µg/mL (≈ 5.52 µM); in [10] (setting [20]) it was 0.8 µg/mL (≈ 1.42 µM); in [11] (in vitro, Entero. aerog. ATCC 13048, read-out: MIC), 6.3 µg/mL (≈ 11.2 µM); in [12], 25 µg/mL (≈ 44.5 µM). Moreover, in assay [13] (setting [21]), the MIC is 1.6 µg/mL (≈ 2.85 µM). Further, the ED50 was 1.1 mg/kg in [14] (setting [23]) and 1.1 mg/kg in assay [15] (sc, Kleb. pneumo. 4200, s.c.).
